# In patent US10787413B2, “Derivatives of curcuminoids and use thereof as an anticancer agent” (CHINA MEDICAL UNIVERSITY, priority 2016, dated 2020):
# Where two headings read alike, the source gives them in different places.
# Legend:
# [1] = tested on: MDA-MB-231 Xenograft; experiment: In vivo antitumor activity, MDA-MB-231 Xenograft nude mice model
# Description: Female nu/nu mice (5 weeks old) were from National Laboratory Animal Center, Taipei, Taiwan. Mice were maintained under the procedures and guidelines from the Institutional Animal Care and Use Committee of the National Health Research Institutes, Taipei, Taiwan. All experiments were supervised under the Institutional Animal Care and Use Committee, China Medical University, Taichung, Taiwan. MDA-MB-231 breast cancer cells (5×10^6 cells per mouse) were suspended in 0.1 ml of Matrigel solution (50% (v/v) Matrigel in PBS) and inoculated into the mammary fat pads of the mice. […] Compounds was administered P.O. once every day for 32 days. Tumor size and mouse body weight were measured once every 4 days, and tumor volume (mm3) was calculated using the equation: length×(width)^2×0.5. At the end of experiments, mice were sacrificed and tumor nodules were dissected and weighed.
# [2] = tested on: T47D; experiment: Cell viability, T47D breast cancer cells; assay type: cell-based; conditions: Homo sapiens; T47D (ER+/PR+), treated for 24 h
# Description: (§1) Cell viability was evaluated by measuring the reduction in MTT to yield blue formazan. Cells were cultured in 96-well plates, allowed to attach overnight, and then treated with compounds. After treatment, MTT solution (1 mg/ml) was added to each well, and plates were incubated for another 4 h. Medium were removed, blue formazan was dissolved in DMSO, and the absorbance was read at 570 nm^20.
# [3] = tested on: Doxorubicin-resistant MDA-MB-231; experiment: Cell viability, Doxorubicin-resistant MDA-MB-231; assay type: cell-based; conditions: for IC50: Doxorubicin-resistant MDA-MB-231, treated for 24 h
# Description: as §1
# [4] = tested on: HCT-116 colon cancer cell; experiment: MTT cell viability assay, HCT-116 colon cancer cell; assay type: cell-based; conditions: Homo sapiens
# Description: as §1
# [5] = Stability of 21a in the culture media; assay type: physicochemical; conditions: media after 72 h treatment analyzed for curcumin
# Description: Besides, the stability of 21a in the culture media was tested.
# [6] = tested on: MDA-MB-231 breast cancer cell; experiment: MTT cell viability assay, MDA-MB-231 breast cancer cell; assay type: cell-based, human; conditions: for IC50: Homo sapiens
# Description: Cell viability was evaluated by measuring the reduction in MTT to yield blue formazan. Cells were cultured in 96-well plates, allowed to attach overnight, and then treated with compounds. After treatment, MTT solution (1 mg/ml) was added to each well, and plates were incubated for another 4 h.
# [7] = tested on: MDA-MB-453; experiment: Cell viability, MDA-MB-453 breast cancer cells; assay type: cell-based; conditions: Homo sapiens; MDA-MB-453 (Her-2+), treated for 24 h
# Description: as §1
# [8] = Solubility in water or alcohol; assay type: physicochemical; conditions: compared with curcumin
# [9] = tested on: MDA-MB-231 cells; experiment: Western blot analysis of treated cells; assay type: cell-based, human
# Description: After treatments, cells were harvested, washed, and suspended in PBS containing proteinase inhibitors and then disrupted with sonication. Protein concentrations were estimated using the Protein Assay kit from Bio-Rad (Hercules, Calif., USA). Samples were resolved with SDS-PAGE and transferred to a polyvinylidene difluoride membrane (EMD Millipore). Each membrane was blocked in 5% (w/v) non-fat milk in Tris-buffered saline with 0.1% (v/v) Tween-20 for 1 h followed by incubation with specific primary antibodies at 4° C. overnight. Each membrane was then incubated with horseradish peroxidase-conjugated secondary antibodies at room temperature for 1 h. Protein signals were detected with the Immobilon Western Chemiluminescent HRP Substrate (EMD Millipore) and visualized using the LAS-4000 imaging system (Fuji, Tokyo, Japan)^25.
# [10] = tested on: BT-474; experiment: Cell viability, BT-474 breast cancer cells; assay type: cell-based; conditions: Homo sapiens; BT-474 (Her-2+), treated for 24 h
# Description: as §1
# [11] = tested on: MDA-MB-231 cells; experiment: Apoptosis analysis (annexin V/propidium iodide); assay type: cell-based, human; conditions: 5 μM, 24 and 48 h
# From the text: After treatments, cells were harvested and stained with annexin V and propidium iodide using the Annexin V: FITC Apoptosis Detection Kit II (BD Biosciences) and subjected to flow cytometry (FACScalibur; Becton-Dickinson, Mountain View, Calif., USA). The percentages of apoptotic cells were quantified with CellQuest software (Becton-Dickinson)^24.
# [12] = tested on: SKBR-3; experiment: Cell viability, SKBR-3 breast cancer cells; assay type: cell-based; conditions: Homo sapiens, SK-BR-3; SKBR-3 (Her-2+), treated for 24 h
# Description: as §1
# [13] = tested on: MCF-7; experiment: Cell viability, MCF-7 breast cancer cells; assay type: cell-based; conditions: Homo sapiens, MCF7; MCF-7 (ER+/PR+), treated for 24 h
# Description: as §1
# [14] = tested on: MDA-MB-468; experiment: Cell viability, MDA-MB-468 breast cancer cells; assay type: cell-based; conditions: Homo sapiens; MDA-MB-468 (Triple negative), treated for 24 h
# Description: as §1
# [15] = tested on: MDA-MB-231 cells; experiment: Cell cycle distribution analysis (PI, flow cytometry); assay type: cell-based, human; conditions: 5 μM, 24 h
# Description: For cell cycle and sub-G1 (apoptosis) determinations, the harvested cells were fixed gently by putting 70% ethanol in 4° C. overnight and then re-suspended in PBS containing 40 μg/ml PI and 0.1 mg/ml RNase and 0.1% Triton X-100 in dark room for 30 min at 37° C. Those cells were analyzed with a flow cytometer equipped with an argon ion laser at 488 nm wavelength^22.
# [16] = Preliminary acute toxicity assay; conditions: 21 days observation
# Description: Normal mice were treated with 21a or 35a by oral route at 500 mg/kg/day for 5 consecutive days, following by 21 days of post-treatment observation. […] Detailed data for their toxicology and safety pharmacology studies will be carried out in the near future.
# Female nu/nu mice (5 weeks old) were P.O. with vehicle (propylene glycol, 0.1 ml) or high dose of 21a (250 and 500 mg/kg) and 35a (500 mg/kg) for 5 days followed by observation of behavior and lethargy for 21 days.
smiles,measurement,setting,value
"COc1cc(/C=C/C(=O)/C=C(O)/C=C/c2ccc(OC(=O)C(C)(CO)CO)c(OC)c2)ccc1OC(=O)C(C)(CO)CO [Compound 21a, ((1E,3Z,6E)-3-Hydroxy-5-oxohepta-1,3,6-triene-1,7-diyl)bis(2-methoxy-4,1-phenylene) bis(3-hydroxy-2-(hydroxymethyl)-2-methylpropenoate)]","antitumor activity, fold more potent than curcumin",[1]; MDA-MB-231 Xenograft nude mice model,10 fold
same,antitumor activity,[1]; PO 5 mg/kg/day,significant antitumor activity
same,inhibitory efficacy,[1]; PO 10 mg/kg/day,equivalent to 100 mg/kg/day of curcumin
same,tumor weight lighter than that of the control group,[1]; PO 50 mg/kg/day,60%
same,inhibition of MDA-MB-231 tumor growth,"[1]; PO 5, 10, 25 and 50 mg/kg/day",dose- and time-dependent inhibition
same,"body weight, behavior change and blood chemistry (serology detection)",[1]; treated vs untreated control group during antitumor evaluation,no significant difference
same,IC50,[2],19.3 ± 1.71 µM
same,times greater inhibitory activity than curcumin,[3]; Doxorubicin-resistant MDA-MB-231,10 times
same,IC50,[3],6.52 ± 1.7 µM
same,IC50,"[3]; Homo sapiens, MDA-MB-231, 24 h",6.5 µM
same,IC50,"[4]; HCT-116, treated 24 hours, read-out: IC50 24 hours",10.5 ± 1.03 µM
same,IC50,"[4]; HCT-116, treated 48 hours, read-out: IC50 48 hours",6.25 ± 0.596 µM
same,IC50,"[4]; HCT-116, treated 72 hours, read-out: IC50 72 hours",3.91 ± 0.27 µM
same,stability in the culture media,[5],stable
same,viability of MDA-MB-231 cells,"[6]; 0, 1, 3, 5 and 10 μM, 24 h, concentration-dependent",significantly reduced
same,combination effect with Doxorubicin,"[6]; 21a in combination with Doxorubicin, MDA-MB-231 cells",Synergistic anticancer effect
same,IC50,"[6]; MDA-MB-231, treated 24 hours, read-out: IC50 24 hours",5.37 ± 1.22 µM
same,IC50,"[6]; MDA-MB-231, treated 48 hours, read-out: IC50 48 hours",3.06 ± 0.18 µM
same,IC50,"[6]; MDA-MB-231, treated 72 hours, read-out: IC50 72 hours",2.67 µM
same,times more potent than curcumin (IC50),"[6]; MDA-MB-231, 72 h treatment, curcumin IC50 16.23 μM",6.2 times
same,IC50,[7],3.97 ± 0.27 µM
same,solubility in either water or alcohol,[8],better than that of curcumin
same,levels of Cyclin B and CDK 1,"[9]; 5 μM, 0-24 h",down-regulated
same,"levels of Bcl-2, Bcl-x","[9]; 10 μM, 0-24 h",downregulated
same,"levels of CHOP, Bip","[9]; 10 μM, 0-24 h",up-regulated
same,"levels of DR5, FADD, Bax","[9]; 10 μM, 0-24 h",up-regulated
same,"levels of Ero1, PD1, PERK1, Calnexin, IRE1α","[9]; 10 μM, 0-24 h",downregulated
same,"levels of Atg5, Atg7, Atg12, Beclin, p62 and LC3B","[9]; 10 μM, 4-24 h, time-dependent",induced
same,IC50,[10],6.15 ± 0.87 µM
same,population of annexin V-positive cells,[11],significantly increased
same,IC50,[12],6.39 ± 0.43 µM
same,IC50,[13],6.13 ± 0.51 µM
same,IC50,[14],6.13 ± 0.51 µM
same,G2/M cell population,[15],significantly increased
same,behavior and death at end of experiment,"[16]; P.O. 21a 250 and 500 mg/kg, 35a 500 mg/kg for 5 days",no behavior alternation and death
same,body weight and behavior change,"[16]; oral 500 mg/kg/day for 5 consecutive days, vs untreated control",no significant difference
